The results in this text go back to patent US20250098679A1, “HERBICIDAL PYRIDONE DERIVATIVES” (SYNGENTA CROP PROTECTION AG, priority 2021, published 2025).

Type in all cases: in vivo
Common to all, as to conditions: evaluated after 13 days

Assay [1] has as its system Setaria faberi (SETFA). Description: Pre-emergence Test, Setaria faberi (SETFA).
Assay [2] relates to Echinochloa crus-galli (ECHCG). Description: Pre-emergence Test, Echinochloa crus-galli (ECHCG).
Assay [3] deals with Zea mays (ZEAMX). The assay is described as follows: Pre-emergence Test, Zea mays (ZEAMX).
Assay [4] relates to Ipomoea hederacea (IPOHE). The assay is described as follows: Pre-emergence Test, Ipomoea hederacea (IPOHE).
Assay [5] deals with Amaranthus palmeri (AMAPA). Description: Pre-emergence Test, Amaranthus palmeri (AMAPA).
Assay [6] concerns Amaranthus retoflexus (AMARE). Description: Pre-emergence Test, Amaranthus retoflexus (AMARE).
Assay [7] deals with Setaria faberi (SETFA). The assay is described as follows: Post-emergence Test, Setaria faberi (SETFA). Also noted: key to percentage damage caused to the plant, SETFA (five-point scale): 5=81-100%, 4=61-80%, 3=41-60%, 2=21-40%, 1=0-20% damage. The procedure, abridged:
(§1)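 Pots sprayed with compound in acetone/water (50:50) with 0.5% Tween 20, at 1000 g/ha unless noted, glasshouse 24/16 °C, 14 h light, 65% humidity. Damage scored 13 days after spraying on a five-point scale (5=81-100% to 1=0-20%).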

Assay [8] has as its system Echinochloa crus-galli (ECHCG). Description: Post-emergence Test, Echinochloa crus-galli (ECHCG). The arrangement: key to percentage damage caused to the plant, ECHCG (five-point scale): 5=81-100%, 4=61-80%, 3=41-60%, 2=21-40%, 1=0-20% damage. The method, boiled down:
as §1

In assay [9] the test system is Zea mays (ZEAMX). The assay is described as follows: Post-emergence Test, Zea mays (ZEAMX). The arrangement: key to percentage damage caused to the plant, ZEAMX (five-point scale): 5=81-100%, 4=61-80%, 3=41-60%, 2=21-40%, 1=0-20% damage. The method, boiled down:
as §1

Assay [10] has as its system Ipomoea hederacea (IPOHE). Description: Post-emergence Test, Ipomoea hederacea (IPOHE). Also noted: key to percentage damage caused to the plant, IPOHE (five-point scale): 5=81-100%, 4=61-80%, 3=41-60%, 2=21-40%, 1=0-20% damage. The method, boiled down: as §1
The subject of assay [11] is Amaranthus palmeri (AMAPA). The assay is described as follows: Post-emergence Test, Amaranthus palmeri (AMAPA). The arrangement: key: 5=81-100%, 4=61-80%, 3=41-60%, 2=21-40%, 1=0-20% damage. The method, boiled down:
as §1

In assay [12] the test system is Amaranthus retoflexus (AMARE). The assay is described as follows: Post-emergence Test, Amaranthus retoflexus (AMARE). The arrangement: key to percentage damage caused to the plant, AMARE (five-point scale): 5=81-100%, 4=61-80%, 3=41-60%, 2=21-40%, 1=0-20% damage. The method, boiled down: as §1

Turning to `CCn1c(Cn2cc(F)cn2)cc(=O)c(C(=O)O)c1-c1ccc(Cl)c(Cl)c1` [Compound 9, 2-(3,4-dichlorophenyl)-1-ethyl-6-[(4-fluoropyrazol-1-yl)methyl]-4-oxo-pyridine-3-carboxylic acid], the “Pre-emergence Test SETFA, percentage damage caused to the plant (five-point scale)” value in the assay on Setaria faberi (SETFA) [1] (250 g/Ha (*)) and with Setaria faberi (SETFA) [1] (1000 g/ha) was 5 (5=81-100%) in each case. Moreover, the “Pre-emergence Test ECHCG, percentage damage caused to the plant (five-point scale)” value in assay [2] (250 g/Ha (*)) and in [2] (1000 g/ha) was 5 (5=81-100%) each time. Moreover, the “Pre-emergence Test ZEAMX, percentage damage caused to the plant (five-point scale)” value with Zea mays (ZEAMX) [3] (250 g/Ha (*)) and with Zea mays (ZEAMX) [3] (1000 g/ha) was 0 in each case. Also, the “Pre-emergence Test IPOHE, percentage damage caused to the plant (five-point scale)” value in [4] (250 g/Ha (*)) is recorded as 1 (1=0-20%); in assay [4] (1000 g/ha), 0. Besides, the figures for the “Pre-emergence Test AMAPA, percentage damage caused to the plant (five-point scale)” value in assay [5] (250 g/Ha (*)) and in [5] (1000 g/ha) were 1 (1=0-20%) and 2 (2=21-40%), respectively. Moreover, the entries for the “Pre-emergence Test AMARE, percentage damage caused to the plant (five-point scale)” value in [6] (250 g/Ha (*)) and in [6] (1000 g/ha) were 0 and 1 (1=0-20%), respectively. Besides, the “percentage damage caused to the plant, SETFA (five-point scale)” value in the assay on Setaria faberi (SETFA) [7] (250 g/Ha) was 4 (4=61-80%); in the assay with Setaria faberi (SETFA) [7] (1000 g/ha), 3 (3=41-60%). The “percentage damage caused to the plant, ECHCG (five-point scale)” value is on record as 3 (3=41-60%) in [8] (250 g/Ha) and 4 (4=61-80%) in [8] (1000 g/ha). Besides, the “percentage damage caused to the plant, ZEAMX (five-point scale)” value was 0 in the assay on Zea mays (ZEAMX) [9] (250 g/Ha) and 2 (2=21-40%) in the assay on Zea mays (ZEAMX) [9] (1000 g/ha). For the same compound, the “percentage damage caused to the plant, IPOHE (five-point scale)” value was 3 (3=41-60%) in [10] (250 g/Ha) and 1 (1=0-20%) in [10] (1000 g/ha). Also, the entries for the “percentage damage caused to the plant, AMAPA (five-point scale)” value in assay [11] (250 g/Ha) and in assay [11] (1000 g/ha) were 0 and 1 (1=0-20%), respectively. The “percentage damage caused to the plant, AMARE (five-point scale)” value in assay [12] (250 g/Ha) and in assay [12] (1000 g/ha) was 0 each time.
As for `CCOC(=O)c1c(-c2ccc(Cl)c(Cl)c2)n(CC)c(Cn2cnc(C(F)(F)F)n2)cc1=O` [Compound 12, ethyl 2-(3,4-dichlorophenyl)-1-ethyl-4-oxo-6-[[3-(trifluoromethyl)-1,2,4-triazol-1-yl]methane]pyridine-3-carboxylate], the “Pre-emergence Test SETFA, percentage damage caused to the plant (five-point scale)” value in the assay on Setaria faberi (SETFA) [1] (1000 g/ha) was 0. The “Pre-emergence Test ECHCG, percentage damage caused to the plant (five-point scale)” value in assay [2] (1000 g/ha) amounted to 0. Further, the “Pre-emergence Test ZEAMX, percentage damage caused to the plant (five-point scale)” value in the assay on Zea mays (ZEAMX) [3] (1000 g/ha) turned out to be 0. Besides, the “Pre-emergence Test IPOHE, percentage damage caused to the plant (five-point scale)” value in assay [4] (1000 g/ha) is listed as 0. The “Pre-emergence Test AMAPA, percentage damage caused to the plant (five-point scale)” value in [5] (1000 g/ha) is given as 0. For the same compound, the “Pre-emergence Test AMARE, percentage damage caused to the plant (five-point scale)” value in assay [6] (1000 g/ha) turned out to be 0. In addition, the “percentage damage caused to the plant, SETFA (five-point scale)” value in the assay with Setaria faberi (SETFA) [7] (1000 g/ha) is listed as 1 (1=0-20%). In addition, the “percentage damage caused to the plant, ECHCG (five-point scale)” value in [8] (1000 g/ha) is 1 (1=0-20%). Moreover, the “percentage damage caused to the plant, ZEAMX (five-point scale)” value in the assay on Zea mays (ZEAMX) [9] (1000 g/ha) is 1 (1=0-20%). The “percentage damage caused to the plant, IPOHE (five-point scale)” value in assay [10] (1000 g/ha) is on record as 2 (2=21-40%). The “percentage damage caused to the plant, AMAPA (five-point scale)” value in [11] (1000 g/ha) is on record as 2 (2=21-40%). Also, the “percentage damage caused to the plant, AMARE (five-point scale)” value in assay [12] (1000 g/ha) is 1 (1=0-20%).
For the compound `CCn1c(Cn2nc(C(F)(F)F)cc2C)cc(=O)c(C(=O)O)c1-c1ccc(Cl)c(Cl)c1` [Compound 13a, 2-(3,4-dichlorophenyl)-1-ethyl-6-[[5-methyl-3-(trifluoromethyl)pyrazol-1-yl]methyl]-4-oxo-pyridine-3-carboxylic acid], the “Pre-emergence Test SETFA, percentage damage caused to the plant (five-point scale)” value is recorded as 2 (2=21-40%) in the assay on Setaria faberi (SETFA) [1] (250 g/Ha (*)) and 4 (4=61-80%) in the assay with Setaria faberi (SETFA) [1] (1000 g/ha). In addition, the “Pre-emergence Test ECHCG, percentage damage caused to the plant (five-point scale)” value is 2 (2=21-40%) in [2] (250 g/Ha (*)) and 3 (3=41-60%) in assay [2] (1000 g/ha). For the same compound, the “Pre-emergence Test ZEAMX, percentage damage caused to the plant (five-point scale)” value with Zea mays (ZEAMX) [3] (250 g/Ha (*)) and in the assay on Zea mays (ZEAMX) [3] (1000 g/ha) was 0 throughout. In addition, the “Pre-emergence Test IPOHE, percentage damage caused to the plant (five-point scale)” value in assay [4] (250 g/Ha (*)) and in assay [4] (1000 g/ha) was 0 each time. The “Pre-emergence Test AMAPA, percentage damage caused to the plant (five-point scale)” value is listed as 1 (1=0-20%) in [5] (250 g/Ha (*)) and 0 in [5] (1000 g/ha). In addition, the “Pre-emergence Test AMARE, percentage damage caused to the plant (five-point scale)” value in assay [6] (250 g/Ha (*)) and in assay [6] (1000 g/ha) was 0 in each case. For the same compound, the entries for the “percentage damage caused to the plant, SETFA (five-point scale)” value in the assay with Setaria faberi (SETFA) [7] (250 g/Ha) and with Setaria faberi (SETFA) [7] (1000 g/ha) were 3 (3=41-60%) and 4 (4=61-80%), respectively. Further, the “percentage damage caused to the plant, ECHCG (five-point scale)” value in assay [8] (250 g/Ha) is 2 (2=21-40%); in assay [8] (1000 g/ha) it was 4 (4=61-80%). Further, the “percentage damage caused to the plant, ZEAMX (five-point scale)” value in the assay with Zea mays (ZEAMX) [9] (250 g/Ha) is 0; in the assay on Zea mays (ZEAMX) [9] (1000 g/ha), 3 (3=41-60%). The “percentage damage caused to the plant, IPOHE (five-point scale)” value in assay [10] (250 g/Ha) is listed as 3 (3=41-60%); in [10] (1000 g/ha) it was 2 (2=21-40%). In addition, the “percentage damage caused to the plant, AMAPA (five-point scale)” value in [11] (250 g/Ha) is recorded as 0; in assay [11] (1000 g/ha), 2 (2=21-40%). For the same compound, the “percentage damage caused to the plant, AMARE (five-point scale)” value in assay [12] (250 g/Ha) is reported as 1 (1=0-20%); in [12] (1000 g/ha), 0.
Consider `CCn1c(Cn2cc(Cl)cn2)cc(=O)c(C(=O)O)c1-c1ccc(Cl)c(Cl)c1` [Compound 14, 6-[(4-chloropyrazol-1-yl)methyl]-2-(3,4-dichlorophenyl)-1-ethyl-4-oxo-pyridine-3-carboxylic acid], for which the “Pre-emergence Test SETFA, percentage damage caused to the plant (five-point scale)” value with Setaria faberi (SETFA) [1] (250 g/Ha (*)) was 3 (3=41-60%); in the assay on Setaria faberi (SETFA) [1] (1000 g/ha), 5 (5=81-100%). In addition, the “Pre-emergence Test ECHCG, percentage damage caused to the plant (five-point scale)” value in assay [2] (250 g/Ha (*)) was 4 (4=61-80%); in [2] (1000 g/ha), 5 (5=81-100%). Besides, the “Pre-emergence Test ZEAMX, percentage damage caused to the plant (five-point scale)” value in the assay on Zea mays (ZEAMX) [3] (250 g/Ha (*)) and in the assay with Zea mays (ZEAMX) [3] (1000 g/ha) was 0 in each case. The “Pre-emergence Test IPOHE, percentage damage caused to the plant (five-point scale)” value in [4] (250 g/Ha (*)) and in [4] (1000 g/ha) was 0 throughout. Also, the entries for the “Pre-emergence Test AMAPA, percentage damage caused to the plant (five-point scale)” value in [5] (250 g/Ha (*)) and in assay [5] (1000 g/ha) were 0 and 1 (1=0-20%), respectively. Moreover, the figures for the “Pre-emergence Test AMARE, percentage damage caused to the plant (five-point scale)” value in [6] (250 g/Ha (*)) and in [6] (1000 g/ha) were 0 and 1 (1=0-20%), respectively. Further, the “percentage damage caused to the plant, SETFA (five-point scale)” value is on record as 2 (2=21-40%) in the assay on Setaria faberi (SETFA) [7] (250 g/Ha) and 4 (4=61-80%) in the assay on Setaria faberi (SETFA) [7] (1000 g/ha). Further, the “percentage damage caused to the plant, ECHCG (five-point scale)” value is recorded as 1 (1=0-20%) in assay [8] (250 g/Ha) and 4 (4=61-80%) in assay [8] (1000 g/ha). Moreover, the “percentage damage caused to the plant, ZEAMX (five-point scale)” value in the assay with Zea mays (ZEAMX) [9] (250 g/Ha) and in the assay on Zea mays (ZEAMX) [9] (1000 g/ha) was 1 (1=0-20%) each time. The “percentage damage caused to the plant, IPOHE (five-point scale)” value in assay [10] (250 g/Ha) and in assay [10] (1000 g/ha) was 3 (3=41-60%) throughout. Besides, the “percentage damage caused to the plant, AMAPA (five-point scale)” value is reported as 1 (1=0-20%) in [11] (250 g/Ha) and 3 (3=41-60%) in [11] (1000 g/ha). Moreover, the “percentage damage caused to the plant, AMARE (five-point scale)” value in assay [12] (250 g/Ha) and in assay [12] (1000 g/ha) was 1 (1=0-20%) each time.
